# The source made the active and inactive calls. How the calls were made is not given here.
# Test system: CCRIS mutagenicity, Ames/micronucleus/aberration tests
# Assay: CCRIS mutagenicity studies
# [1] = Test System: AMES SALMONELLA TYPHIMURIUM, Strain/Indicator: TA98, Metabolic Activation: NONE, Method: STANDARD PLATE
# [2] = Test System: AMES SALMONELLA TYPHIMURIUM, Strain/Indicator: TA98, Metabolic Activation: NONE, Method: PREINCUBATION
# [3] = Test System: AMES SALMONELLA TYPHIMURIUM, Strain/Indicator: TA100, Metabolic Activation: NONE, Method: PREINCUBATION
# [4] = Test System: AMES SALMONELLA TYPHIMURIUM, Strain/Indicator: TA100, Metabolic Activation: NONE, Method: STANDARD PLATE
structure (smiles),measurement,setting,value
[Pb],mutagenic call,"End Point: IN VIVO MICRONUCLEUS, Test System: PERIPHERAL BLOOD LYMPHOCYTES, Species: HUMAN, Strain/Sex: MALE, Route: PROBABLY INHALATION, Method: 72 HR CONTINUOUS TREATMENT",active; positive
same,mutagenic call,[1],inactive; negative
same,mutagenic call,"Test System: AMES SALMONELLA TYPHIMURIUM, Strain/Indicator: TA98, Metabolic Activation: RAT, LIVER, S-9, PHENOBARBITAL, Method: STANDARD PLATE",inactive; negative
same,mutagenic call,"Test System: AMES SALMONELLA TYPHIMURIUM, Strain/Indicator: TA102, Metabolic Activation: NONE, Method: STANDARD PLATE",active; positive
same,mutagenic call,"Test System: AMES SALMONELLA TYPHIMURIUM, Strain/Indicator: TA102, Metabolic Activation: RAT, LIVER, S-9, PHENOBARBITAL, Method: STANDARD PLATE",inactive; negative
same,mutagenic call,"Test System: AMES SALMONELLA TYPHIMURIUM, Strain/Indicator: TA1535, Metabolic Activation: NONE, Method: STANDARD PLATE",inactive; negative
same,mutagenic call,"Test System: AMES SALMONELLA TYPHIMURIUM, Strain/Indicator: TA1535, Metabolic Activation: RAT, LIVER, S-9, PHENOBARBITAL, Method: STANDARD PLATE",inactive; negative
same,mutagenic call,"Test System: AMES SALMONELLA TYPHIMURIUM, Strain/Indicator: TA1537, Metabolic Activation: NONE, Method: STANDARD PLATE",inactive; negative
same,mutagenic call,"Test System: AMES SALMONELLA TYPHIMURIUM, Strain/Indicator: TA1537, Metabolic Activation: RAT, LIVER, S-9, PHENOBARBITAL, Method: STANDARD PLATE",inactive; negative
COc1cc(-c2ccc(N/N=C3\C=C(S(=O)(=O)O)c4ccccc4C3=O)c(OC)c2)ccc1N/N=C1/C=C(S(=O)(=O)O)c2ccccc2C1=O,mutagenic call,"Test System: AMES SALMONELLA TYPHIMURIUM, Strain/Indicator: TA98, Metabolic Activation: HAMSTER, LIVER, S-9, AROCLOR 1254 (10%), Method: PREINCUBATION",inactive; negative
same,mutagenic call,[2],inactive; negative
same,mutagenic call,"Test System: AMES SALMONELLA TYPHIMURIUM, Strain/Indicator: TA98, Metabolic Activation: RAT, LIVER, S-9, AROCLOR 1254 (10%), Method: PREINCUBATION",inactive; negative
same,mutagenic call,"Test System: AMES SALMONELLA TYPHIMURIUM, Strain/Indicator: TA100, Metabolic Activation: HAMSTER, LIVER, S-9, AROCLOR 1254 (10%), Method: PREINCUBATION",inactive; negative
same,mutagenic call,[3],inactive; negative
same,mutagenic call,"Test System: AMES SALMONELLA TYPHIMURIUM, Strain/Indicator: TA100, Metabolic Activation: RAT, LIVER, S-9, AROCLOR 1254 (10%), Method: PREINCUBATION",inactive; negative
same,mutagenic call,"Test System: AMES SALMONELLA TYPHIMURIUM, Strain/Indicator: TA1535, Metabolic Activation: HAMSTER, LIVER, S-9, AROCLOR 1254 (10%), Method: PREINCUBATION",inactive; negative
same,mutagenic call,"Test System: AMES SALMONELLA TYPHIMURIUM, Strain/Indicator: TA1535, Metabolic Activation: NONE, Method: PREINCUBATION",inactive; negative
same,mutagenic call,"Test System: AMES SALMONELLA TYPHIMURIUM, Strain/Indicator: TA1535, Metabolic Activation: RAT, LIVER, S-9, AROCLOR 1254 (10%), Method: PREINCUBATION",inactive; negative
same,mutagenic call,"Test System: AMES SALMONELLA TYPHIMURIUM, Strain/Indicator: TA1537, Metabolic Activation: HAMSTER, LIVER, S-9, AROCLOR 1254 (10%), Method: PREINCUBATION",inactive; negative
same,mutagenic call,"Test System: AMES SALMONELLA TYPHIMURIUM, Strain/Indicator: TA1537, Metabolic Activation: NONE, Method: PREINCUBATION",inactive; negative
same,mutagenic call,"Test System: AMES SALMONELLA TYPHIMURIUM, Strain/Indicator: TA1537, Metabolic Activation: RAT, LIVER, S-9, AROCLOR 1254 (10%), Method: PREINCUBATION",inactive; negative
same,mutagenic call,"Test System: AMES SALMONELLA TYPHIMURIUM, Strain/Indicator: TA1538, Metabolic Activation: RAT, LIVER, S-9, AROCLOR 1254, Method: STANDARD PLATE",inactive; negative
CC(C)(O)CCc1ccc(O)c2c(=O)c3c(O)c4c(cc3oc12)O[C@H]1OC=C[C@@]41O,mutagenic call,[1],inactive; negative
same,mutagenic call,"Test System: AMES SALMONELLA TYPHIMURIUM, Strain/Indicator: TA98, Metabolic Activation: RAT, LIVER, S-9, AROCLOR 1254, Method: STANDARD PLATE",active; positive
same,mutagenic call,[4],inactive; negative
same,mutagenic call,"Test System: AMES SALMONELLA TYPHIMURIUM, Strain/Indicator: TA100, Metabolic Activation: RAT, LIVER, S-9, AROCLOR 1254, Method: STANDARD PLATE",active; positive
O=[N+]([O-])c1cccc(S(=O)(=O)O)c1,mutagenic call,[2],inactive; negative
same,mutagenic call,"Test System: AMES SALMONELLA TYPHIMURIUM, Strain/Indicator: TA98, Metabolic Activation: RAT, LIVER, S-9, KANECHLOR 500, Method: PREINCUBATION",inactive; negative
same,mutagenic call,[3],inactive; negative
same,mutagenic call,"Test System: AMES SALMONELLA TYPHIMURIUM, Strain/Indicator: TA100, Metabolic Activation: RAT, LIVER, S-9, KANECHLOR 500, Method: PREINCUBATION",inactive; negative
CC(C)Nc1nc(N)nc(Cl)n1,mutagenic call,"Test System: AMES SALMONELLA TYPHIMURIUM, Strain/Indicator: TA97, Metabolic Activation: NONE, Method: STANDARD PLATE",inactive; negative
same,mutagenic call,[1],inactive; negative
same,mutagenic call,[4],inactive; negative
Nc1ccc(-c2ccc(N)c(Br)c2)cc1Br,mutagenic call,"Test System: AMES SALMONELLA TYPHIMURIUM, Strain/Indicator: TA98(1,8-DNP6), Metabolic Activation: NONE, Method: STANDARD PLATE",active; positive
same,mutagenic call,"Test System: AMES SALMONELLA TYPHIMURIUM, Strain/Indicator: TA98(1,8-DNP6), Metabolic Activation: S-9, Method: STANDARD PLATE",active; positive
same,mutagenic call,"Test System: AMES SALMONELLA TYPHIMURIUM, Strain/Indicator: TA98/1,8-DNP6, Metabolic Activation: HAMSTER, LIVER, S-9, Method: PREINCUBATION",active; positive
same,mutagenic call,"Test System: AMES SALMONELLA TYPHIMURIUM, Strain/Indicator: TA98/1,8-DNP6, Metabolic Activation: NONE, Method: PREINCUBATION",active; positive
same,mutagenic call,"Test System: AMES SALMONELLA TYPHIMURIUM, Strain/Indicator: TA98, Metabolic Activation: HAMSTER, LIVER, S-9, Method: PREINCUBATION",active; positive
same,mutagenic call,[2],active; positive
same,mutagenic call,[1],active; positive
same,mutagenic call,"Test System: AMES SALMONELLA TYPHIMURIUM, Strain/Indicator: TA98, Metabolic Activation: S-9, Method: STANDARD PLATE",active; positive
same,mutagenic call,[4],inactive; negative
same,mutagenic call,"Test System: AMES SALMONELLA TYPHIMURIUM, Strain/Indicator: TA100, Metabolic Activation: S-9, Method: STANDARD PLATE",active; positive
O=CNNc1nc(-c2ccc([N+](=O)[O-])o2)cs1,mutagenic call,"Test System: AMES SALMONELLA TYPHIMURIUM, Strain/Indicator: TA100, Metabolic Activation: RAT, LIVER, S-9, KC500 OR PHENOBARBITAL, Method: LIQUID SUSPENSION",active; positive
same,mutagenic call,"Test System: E. COLI, Strain/Indicator: WP2, Metabolic Activation: NONE, Method: SPOT",active; positive
same,mutagenic call,"Test System: E. COLI, Strain/Indicator: WP2 UVRA, Metabolic Activation: NONE, Method: SPOT",active; positive
c1ccc2c(c1)c1c(c3c4ccccc4c4ccccc4c23)O1,mutagenic call,"Test System: AMES SALMONELLA TYPHIMURIUM, Strain/Indicator: TA98, Metabolic Activation: NONE, Method: PREINCUBATION (KCL-CONTAINING MEDIUM)",active; positive
same,mutagenic call,"Test System: AMES SALMONELLA TYPHIMURIUM, Strain/Indicator: TA98, Metabolic Activation: NONE, Method: PREINCUBATION (KCL-FREE MEDIUM)",active; positive
same,mutagenic call,"Test System: AMES SALMONELLA TYPHIMURIUM, Strain/Indicator: TA100, Metabolic Activation: NONE, Method: PREINCUBATION (KCL-FREE OR KCL-CONTAINING MEDIA)",active; positive
CCCCc1ccc(N=Cc2ccc(OC)cc2)cc1,mutagenic call,[2],inactive; negative
same,mutagenic call,"Test System: AMES SALMONELLA TYPHIMURIUM, Strain/Indicator: TA100, Metabolic Activation: HAMSTER, LIVER, S-9, AROCLOR 1254 (30%), Method: PREINCUBATION",active; positive
same,mutagenic call,[3],inactive; negative
same,mutagenic call,"Test System: AMES SALMONELLA TYPHIMURIUM, Strain/Indicator: TA100, Metabolic Activation: RAT, LIVER, S-9, AROCLOR 1254 (30%), Method: PREINCUBATION",inactive; negative

# — PubChem BioAssay AID1259407 (Chemical Carcinogenesis Research Information System (CCRIS), 2018)
